Experimental data taken from patent publication US11440923B2, “Substituted macrocyclic indole derivatives” (Bayer Aktiengesellschaft, priority 2017, dated 2022).
Structures can show the parent of a compound that is named as a salt. Where two headings read alike, the source gives them in different places. Blank lines part the entries; values can stand above or below the compound they belong to.

Key:
[1] = test system: SUDHL5 cells; assay: Antiproliferation assay SUDHL5 (Assay 7); format: cell-based
Method in brief: (§1)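 72 h antiproliferation, 37 °C, CellTiter-Glo luminescence. Day 0 plate = CI; DMSO = C0; IC50 calculated from these.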

[2] = test system: HMC-1-8 cells; assay: Antiproliferation assay HMC-1-8 (Assay 7); format: cell-based
Method in brief: as §1

[3] = test system: SK-MEL-2 cells; assay: Antiproliferation assay SK-MEL-2 (Assay 7); format: cell-based; conditions: Homo sapiens, SK-MEL-2; 72 h, CellTiter-Glo; read-out: Antiproli SK-MEL-2 IC50 median
Procedure: (§2) Assessment of the Anti-Proliferative Effect of Compounds in Different Cell Lines
(§3) The impact of compounds on the proliferation of different cell lines was assessed using the CellTiter-Glo® Luminescent Cell Viability reagent from Promega (G7573).
(§4) In parallel, cells were plated in a reference (day 0) plate for time zero determination. Cells were incubated in a humidified incubator at 37° C. overnight.
(§5) Rim wells were excluded. The cells were incubated for 72 h hours in a humidified incubator at 37° C. The day 0 plate was measured by adding 30 μL/well of CTG solution (CellTiter-Glo® Luminescent Cell Viability reagent, Promega G7573) to time zero wells in the reference plate followed by a 10 minutes incubation and luminescence reading at 0.1 ms. using the PHERAstar FS microplate reader (BMG Labtech).
(§6) After 72 h incubation, the treated plates were measured in the same way as the day 0 plate mentioned above. The Bella DRC Master Sheet was used to calculate IC50s, with CI=day 0 values and C0=DMSO control values.

[4] = test system: SUDHL5 cells; assay: Induction of caspase-3/7 activity in SUDHL5 cells (Assay 4); format: cell-based
Method in brief: (§7)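 Caspase-3/7 activity measured in DLBCL lines after 3 h compound exposure at 37 °C, following overnight plating; Caspase-Glo 3/7 luminescence read after 1 h at 37 °C. Medium-only background subtracted, values normalized to mean of DMSO-treated cells.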

[5] = test system: DMS-114 cells; assay: Antiproliferation assay DMS-114 (Assay 7); format: cell-based; conditions: Homo sapiens; DMS-114 cells, 72 h, CellTiter-Glo; read-out: Antiproli DM-S114 IC50 median
Procedure: as §2, §3, §4, §5, §6

[6] = test system: SNU-16 cells; assay: Antiproliferation assay SNU-16 (Assay 7); format: cell-based; conditions: Homo sapiens, SNU-16; 72 h, CellTiter-Glo; read-out: Antiproli SNU-16 IC50 median
Procedure: as §2, §3, §4, §5, §6

[7] = test system: SNU-389 cells; assay: Antiproliferation assay SNU-389 (Assay 7); format: cell-based; conditions: 72 h, CellTiter-Glo; read-out: Antiproli SNU-389 IC50
Procedure: as §2, §3, §4, §5, §6

[8] = test system: AMO-1 cells; assay: Antiproliferation assay AMO-1 (Assay 7); format: cell-based; conditions: 72 h, CellTiter-Glo, read-out: Antiproli AMO-1 IC50 median
Method in brief: as §1

[9] = test system: SUDHL5 cells; assay: Induction of cytotoxicity in SUDHL5 cells (Assay 6); format: cell-based; conditions: 5 h, CellTiter-Glo, read-out: Cytotox SUDHL5 IC50 (median)
Method in brief: (§8)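 Following overnight seeding at 37 °C, cells are treated with compound for 5 h, after which CellTiter-Glo reagent is added and luminescence measured following a 15 min room-temperature shake.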

[10] = test system: SUDHL10 cells; assay: Induction of caspase-3/7 activity in SUDHL10 cells (Assay 4); format: cell-based
Method in brief: as §7

[11] = test system: A-431 cells; assay: Antiproliferation assay A-431 (Assay 7); format: cell-based; conditions: Homo sapiens, A-431; 72 h, CellTiter-Glo; read-out: Antiproli A-431 IC50 median
Procedure: as §2, §3, §4, §5, §6

[12] = test system: PA-1 cells; assay: Antiproliferation assay PA-1 (Assay 7); format: cell-based; conditions: Homo sapiens, PA-1; 72 h, CellTiter-Glo; read-out: Antiproli PA-1 IC50 median
Procedure: as §2, §3, §4, §5, §6

[13] = test system: SUDHL10 cells; assay: Induction of cytotoxicity in SUDHL10 cells (Assay 6); format: cell-based; conditions: 5 h, CellTiter-Glo, read-out: Cytotox SUDHL10 IC50 (median)
Method in brief: as §8

[14] = molecular target: MCL1 protein / biotinylated BIM BH3 peptide in RKO cells (Homo sapiens (Human), UniProt Q07820); assay: PIxEL: protein-protein interaction in permeabilized cells by ELISA (Assay 5); format: cell-based; conditions: PIxEL IC50 (median)
Chain of MCL1 protein / biotinylated BIM BH3 peptide in RKO cells (Q07820 whole entry): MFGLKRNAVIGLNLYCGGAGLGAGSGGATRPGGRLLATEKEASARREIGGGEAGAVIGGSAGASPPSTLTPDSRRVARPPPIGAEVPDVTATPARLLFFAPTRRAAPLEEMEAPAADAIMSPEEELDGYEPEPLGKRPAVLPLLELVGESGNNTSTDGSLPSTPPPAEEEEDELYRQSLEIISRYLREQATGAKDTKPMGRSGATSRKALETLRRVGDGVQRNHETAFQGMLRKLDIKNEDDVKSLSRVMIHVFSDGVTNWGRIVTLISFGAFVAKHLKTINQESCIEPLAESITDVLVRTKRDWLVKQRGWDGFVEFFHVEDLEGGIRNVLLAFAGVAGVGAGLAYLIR
Procedure: PIxEL: Protein-Protein Interaction in Permeabilized Cells by ELISA
Most MCL1 protein molecules are localized at the mitochondria outer membrane and sequester pro-apoptotic proteins through binding of their BCL2 homology domain 3 (BH3 domain). MEB buffer (150 mM mannitol, 10 mM HEPES pH 7.5, 50 mM KCl, 20 μM EDTA, 20 μM EGTA, 5 mM potassium succinate, 0.1% protease-free BSA (SIGMA) with low dose digitonin (0.002%) permeabilizes plasma membrane while leaves live mitochondria, where MCL1 maintains its native localization and conformation. Unlike biophysical assays (e.g. TR-FRET) that use truncated recombinant MCL1 protein, this assay uses full length endogenous MCL1 protein at mitochondria outer membrane. It measures the interaction between MCL1 protein and biotinylated BIM BH3 peptide. Compounds can compete with BIM BH3 peptide to bind to MCL1 protein.
On day 1, RKO colon cancer cell line cells were plated at 0.8 million cells/ml, 100 μl/well in 96-well flat bottom TC plates (Corning). MCL1 antibody (Santa Cruz sc-12756) were diluted at 200 fold (final concentration 1 μg/ml) in carbonate buffer (Thermo Fisher Scientific, pH 9.6), and 50 μl of diluted antibody was added to each well of high bind ELISA plates ([…]). Each plate was tapped to make sure liquid covering entire bottom of wells and incubate at 37° C. overnight.
On the second day, MCL1 antibody was washed from ELISA plate. 250 μl Odyssey® Blocking Buffer (PBS) (Li-Cor) was added to each well, incubated at room temperature for at least 1 hour, then washed once with 250 μl 1×PBST. Plates with RKO cells were gently washed once with 100 μl/well PBS, once with 100 μl/well MEB buffer without digitonin, then 100 μl of MEB buffer with 0.002% digitonin was gently added to each well. Compounds were added with HP Tecan compound dispenser in 3-fold dilution series, highest dose 30 μM, 10-dose per compound in quadruplicates. Biotin-BIM peptide (synthesized by 21st Century) was added with HP Tecan compound dispenser at 0.2 μM immediately after the addition of compounds. Plates were rocked for 1 hour at room temperature. Then MEB buffer was aspirated and 50 μl of CHAPS buffer (50 mM Tris-Cl, pH 7.4, 150 mM NaCl, 1% CHAPS, 1 mM EDTA, 1 mM EGTA, cOmplete protease inhibitors (Roche), PhosSTOP (Roche)) was added to each well. Plates were rocked for 1 hour at 4° C., then 45 μl cell lysate from each well were transferred to ELISA plates coated with MCL1 antibody. Plates were incubated overnight in the cold room with rocking.
On the third day, ELISA plates were washed once with 250 μl 1×PBST. Streptavidin-poly-HRP (Thermo Fisher Scientific) was diluted to 20 ng/ml in Odyssey blocking buffer plus 0.05% Triton-100, and 100 μl was added to each well of the ELISA plate. Plates were incubated at room temperature for 1 hour with rocking, then washed with 100 μl 1×PBST for 3 times. Each SuperSignal ELISA Femto Maximum Sensitivity substrate was added to a 50-ml tube and mixed, then 100 μl of mixed substrate was added to each well. Plates were shaken for 1 minute then luminescence was measured by Envision plate reader […]. Signal of each well were normalized by no-compound control and no-cell control. IC50 was calculated using Graphic Pad PRISM software.

[15] = molecular target: MCL-1 (Homo sapiens (Human), UniProt Q07820, K194A/K197A/R201A); assay: Protein-protein interaction assay MCL-1/Noxa BH3 peptide (MCL-1 assay, TR-FRET); format: binding; conditions: MCL-1 Assay IC50 (median)
Chain of MCL-1 (Q07820 whole entry, looked up, stated change not applied, the tested form may be a part): as the sequence (Q07820 whole entry) above
Procedure: The dose-dependent inhibition by the compounds described in this invention of the interaction between MCL-1 and the BH3 domain of Noxa (both human) was determined using a steady state binding competition assay with time-resolved fluorescence energy transfer (TR-FRET) readout. For that purpose MCL-1 (amino acids 173-321, N-terminal fused to Maltose Binding Protein (MBP) SEQ ID 1)) and a synthetic Noxa BH3-derived peptide of sequence Biotin-PEG2-PEG2-PAELEVE-Nva-[…]-amide (SEQ ID 2) served as protein receptor and tracer ligand respectively. The MBP-MCL-1 was purchased from Beryllium (Bedford, Mass., USA). The expression and purification of this protein construct has been described elsewhere (DOI:10.1371/journal.pone.0125010). The Noxa BH3-derived peptide can be obtained from e.g. Biosyntan (Berlin, Germany).
For that, 100-fold concentrated DMSO solutions were prepared by serial dilutions (1:3.4) of a 2 mM stock solution in a clear, 384-well microtiter plate (Greiner Bio-One, Frickenhausen, Germany). From there, 50 nl were transferred in a dark test plate (Greiner Bio-One, Frickenhausen, Germany). The assay was initiated by addition of 2 μL of a 2,5-fold concentrated MBP-MCL-1 solution (usually for a 1 nM end concentration in 5 μL reaction volume) in aqueous assay buffer [50 mM Tris/HCl pH 7, 100 mM sodium chloride (NaCl), 50 mM potassium fluoride (KF), 0.005% Tween-20, 2 mM DTT, 0.1% bovine gamma globulin (BGG)] to the compounds in the assay plate. This was followed by a 10-minute incubation step at 22° C. for pre-equilibration of the putative complex between MBP-MCL-1 and the compounds.
The mixture was incubated in the dark for one hour at 22° C. and then overnight at 4° C. The formation of MCL-1/Noxa complexes was determined by measuring the resonance energy transfer of the anti-MBP-Eu-cryptate antibody to the streptavidin-XL665 present in the reaction.
For that purpose, the fluorescence emission at 620 nm and 665 nm after excitation at 330-350 nm was measured in a TR-FRET measuring instrument, for instance a Rubystar or a Pherastar (both from BMG Lab Technologies, Offenburg, Germany) or a Viewlux (Perkin-Elmer). The ratio of the emission at 665 nm and at 622 nm was used as indicator of the amount of MCL-1/NOXA complexes present.
The resulting data (ratio) were normalized, taking 0% inhibition as the mean value of control measurements (usually 32 data points) where all reagents were included. In this case 50 nl DMSO were used instead of compounds. […] IC50 values were determined by regression analysis based on a 4 parameter equation (minimum, maximum, IC50, Hill; Y=Max+(Min−Max)/(1+(X/IC50)^Hill) using the Screener Software (Genedata).

- IC50 ([1]; 72 h, CellTiter-Glo; read-out: Antiproli SUDHL5 IC50 (median)): 0.03 µM
- IC50 [3]: 0.252 µM
- EC50 ([4]; caspase-3/7 induction, 3 h; read-out: Caspase SUDHL5 EC50 (median)): 0.027 µM
- IC50 [6]: 1.11 µM
- IC50 [7]: 0.141 µM
- EC50 ([10]; caspase-3/7 induction, 3 h; read-out: Caspase SUDHL10 EC50 (median)): 0.013 µM
- IC50 [11]: 0.209 µM
Compound: CCc1c2c(nn1C)C(CCN1CCOCC1)OCC(F)(F)CCn1c(C(=O)O)c(CCCOc3cccc4cc(F)ccc34)c3ccc(Cl)c-2c31 (single isomer, unassigned; (+)) [Example 90, (+)-4-chloro-3-ethyl-12,12-difluoro-7-{3-[(6-fluoronaphthalen-1-yl)oxy]propyl}-2-methyl-15-[2-(morpholin-4-yl)ethyl]-2,10,11,12,13,15-hexahydropyrazolo[4′,3′:9,10][1,6]oxazacycloundecino[8,7,6-hi]indole-8-carboxylic Acid]
- IC50 ([2]; 72 h, CellTiter-Glo; read-out: Antiproli HMC-1-8 IC50 median): 0.416 µM
- IC50 [5]: 0.163 µM
- IC50 [8]: 0.0242 µM
- IC50 [9]: 0.03 µM
- IC50 [12]: 0.422 µM

- IC50 ([1]; read-out: Antiproli SUDHL5 IC50 (median); 72 h, CellTiter-Glo): 0.03 µM
- EC50 ([4]; read-out: Caspase SUDHL5 EC50 (median); caspase-3/7 induction, 3 h): 0.064 µM
- EC50 ([10]; read-out: Caspase SUDHL10 EC50 (median); caspase-3/7 induction, 3 h): 0.15 µM
- IC50 [14]: 0.617 µM
Compound: Cc1c2c(nn1C)C(CCN1CCOCC1)OCCCCn1c(C(=O)O)c(CCCOc3cccc4ccccc34)c3ccc(F)c-2c31 (single isomer, unassigned; enantiomer 1) [Example 8, 4-fluoro-2,3-dimethyl-15-[2-(morpholin-4-yl)ethyl]-7-{3-[(naphthalen-1-yl)oxy]propyl}-2,10,11,12,13,15-hexahydropyrazolo[4′,3′:9,10][1,6]oxazacycloundecino[8,7,6-hi]indole-8-carboxylic Acid—N-ethylethanamine Salt (Enantiomer 1)]
- IC50 [13]: 0.14 µM
- IC50 [9]: 0.076 µM

- IC50 ([1]; Homo sapiens, SU-DHL-5, 72 h, 72 h, CellTiter-Glo; read-out: Antiproli SUDHL5 IC50 (median)): 0.071 µM
- IC50 [15]: 0.0017 µM
- EC50 ([4]; Homo sapiens, SU-DHL-5, 3 h, caspase-3/7 induction, 3 h; read-out: Caspase SUDHL5 EC50 (median)): 0.031 µM
- EC50 ([10]; Homo sapiens, SU-DHL10, 3 h, caspase-3/7 induction, 3 h; read-out: Caspase SUDHL10 EC50 (median)): 0.037 µM
Compound: CCc1c2c(nn1C)C(CCN1CC(F)(F)C1)OCCCCn1c(C(=O)O)c(CCCOc3cccc4cc(F)ccc34)c3ccc(Cl)c-2c31 (racemic) [Example 77, (rac)-4-chloro-(15-rac)-[2-(3,3-difluoroazetidin-1-yl)ethyl]-3-ethyl-7-{3-[(6-fluoronaphthalen-1-yl)oxy]propyl}-2-methyl-2,10,11,12,13,15-hexahydropyrazolo[4′,3′:9,10][1,6]oxazacycloundecino[8,7,6-hi]indole-8-carboxylic Acid]
- IC50 ([13]; Homo sapiens, SU-DHL10, 5 h): 0.1 µM
- IC50 ([2]; 72 h, CellTiter-Glo, read-out: Antiproli HMC-1-8 IC50 median): 0.52 µM
- IC50 ([8]; Homo sapiens, AMO1, 72 h): 0.0315 µM
- IC50 ([9]; Homo sapiens, SU-DHL-5, 5 h): 0.045 µM
